What was measured:
Assay in all cases: FRET-based coupled-enzyme protein kinase inhibition assay
Type in all cases: biochemical
Conditions in all cases: compound at 10 µM, 1% DMSO
ACVR1B (ALK4) = target: T1, ACVR1B (ALK4) (Homo sapiens, UniProt P36896)
T1 sequence (P36896 24-505): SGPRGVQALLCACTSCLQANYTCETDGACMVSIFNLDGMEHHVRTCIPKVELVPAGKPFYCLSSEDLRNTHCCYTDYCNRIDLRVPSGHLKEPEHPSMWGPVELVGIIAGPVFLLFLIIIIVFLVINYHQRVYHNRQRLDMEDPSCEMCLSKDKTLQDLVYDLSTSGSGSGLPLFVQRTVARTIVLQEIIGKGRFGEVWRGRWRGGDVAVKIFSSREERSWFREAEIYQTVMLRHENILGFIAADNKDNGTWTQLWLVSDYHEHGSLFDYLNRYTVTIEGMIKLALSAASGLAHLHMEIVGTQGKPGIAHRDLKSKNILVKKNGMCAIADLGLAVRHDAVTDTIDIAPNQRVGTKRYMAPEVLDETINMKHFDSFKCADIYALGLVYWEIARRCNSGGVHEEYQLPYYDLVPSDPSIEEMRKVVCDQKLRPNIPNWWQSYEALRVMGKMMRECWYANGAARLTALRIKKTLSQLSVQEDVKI
In short: (§1)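 FRET peptide (coumarin donor, fluorescein acceptor) was phosphorylated by each kinase in 50 mM HEPES pH 7.5, 10 mM MgCl2, 1 mM EDTA, 0.01% BRIJ-35 for 60 min at room temperature. ATP was at apparent Km, compounds in 1% DMSO. Protease development reagent then cleaved non-phosphorylated peptide over 60 min.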

PLK1 = PLK1 (Homo sapiens, UniProt P53350)
PLK1, sequence (P53350 whole entry, species assumed): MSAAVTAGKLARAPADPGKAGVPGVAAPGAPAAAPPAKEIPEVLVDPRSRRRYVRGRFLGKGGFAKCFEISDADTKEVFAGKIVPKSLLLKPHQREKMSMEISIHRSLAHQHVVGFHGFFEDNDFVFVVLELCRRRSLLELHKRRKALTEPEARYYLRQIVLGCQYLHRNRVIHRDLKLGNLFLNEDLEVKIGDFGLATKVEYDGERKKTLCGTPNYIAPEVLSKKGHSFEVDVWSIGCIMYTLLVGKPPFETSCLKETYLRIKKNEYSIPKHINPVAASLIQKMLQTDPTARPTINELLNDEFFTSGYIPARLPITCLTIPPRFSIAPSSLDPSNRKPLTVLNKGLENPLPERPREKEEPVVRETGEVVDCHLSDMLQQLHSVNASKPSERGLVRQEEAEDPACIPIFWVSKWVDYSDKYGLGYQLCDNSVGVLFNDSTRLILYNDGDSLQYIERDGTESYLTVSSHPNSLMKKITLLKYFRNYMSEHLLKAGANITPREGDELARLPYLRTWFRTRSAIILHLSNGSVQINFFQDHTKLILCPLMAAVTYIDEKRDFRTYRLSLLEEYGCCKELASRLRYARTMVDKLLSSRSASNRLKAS
In short: as §1

JAK3 = target: T2, JAK3 (Homo sapiens, UniProt P52333)
T2 sequence (P52333 1-1124): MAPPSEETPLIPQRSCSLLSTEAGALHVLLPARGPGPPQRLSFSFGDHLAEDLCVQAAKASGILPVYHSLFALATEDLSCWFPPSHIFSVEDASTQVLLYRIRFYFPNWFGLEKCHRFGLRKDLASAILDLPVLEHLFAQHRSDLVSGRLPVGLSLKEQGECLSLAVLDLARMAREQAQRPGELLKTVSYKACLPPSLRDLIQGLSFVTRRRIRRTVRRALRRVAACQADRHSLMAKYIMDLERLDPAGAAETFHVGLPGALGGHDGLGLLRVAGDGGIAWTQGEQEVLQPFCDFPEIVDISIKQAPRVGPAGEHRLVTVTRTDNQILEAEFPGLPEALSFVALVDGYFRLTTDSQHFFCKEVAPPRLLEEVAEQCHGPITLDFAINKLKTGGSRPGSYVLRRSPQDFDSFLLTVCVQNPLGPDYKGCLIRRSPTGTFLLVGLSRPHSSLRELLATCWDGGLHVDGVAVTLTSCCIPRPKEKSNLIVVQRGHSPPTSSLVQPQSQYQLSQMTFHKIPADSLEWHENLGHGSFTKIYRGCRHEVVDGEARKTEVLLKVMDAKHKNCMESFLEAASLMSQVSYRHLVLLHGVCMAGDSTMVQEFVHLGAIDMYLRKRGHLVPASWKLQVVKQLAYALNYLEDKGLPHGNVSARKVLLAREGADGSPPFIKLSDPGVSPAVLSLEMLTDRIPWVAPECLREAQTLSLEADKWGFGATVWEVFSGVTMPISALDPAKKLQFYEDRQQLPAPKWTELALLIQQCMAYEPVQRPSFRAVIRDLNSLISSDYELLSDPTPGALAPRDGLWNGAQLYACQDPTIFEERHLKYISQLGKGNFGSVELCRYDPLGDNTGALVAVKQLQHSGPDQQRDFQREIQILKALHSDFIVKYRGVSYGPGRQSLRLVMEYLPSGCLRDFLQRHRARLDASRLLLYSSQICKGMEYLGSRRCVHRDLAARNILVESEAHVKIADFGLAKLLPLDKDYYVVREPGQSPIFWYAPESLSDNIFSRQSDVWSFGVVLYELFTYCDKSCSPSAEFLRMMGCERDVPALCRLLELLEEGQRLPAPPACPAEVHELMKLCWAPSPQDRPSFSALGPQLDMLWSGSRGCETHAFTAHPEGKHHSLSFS
In short: as §1

LCK = LCK (Homo sapiens, UniProt P06239)
LCK, sequence (P06239 whole entry, species assumed): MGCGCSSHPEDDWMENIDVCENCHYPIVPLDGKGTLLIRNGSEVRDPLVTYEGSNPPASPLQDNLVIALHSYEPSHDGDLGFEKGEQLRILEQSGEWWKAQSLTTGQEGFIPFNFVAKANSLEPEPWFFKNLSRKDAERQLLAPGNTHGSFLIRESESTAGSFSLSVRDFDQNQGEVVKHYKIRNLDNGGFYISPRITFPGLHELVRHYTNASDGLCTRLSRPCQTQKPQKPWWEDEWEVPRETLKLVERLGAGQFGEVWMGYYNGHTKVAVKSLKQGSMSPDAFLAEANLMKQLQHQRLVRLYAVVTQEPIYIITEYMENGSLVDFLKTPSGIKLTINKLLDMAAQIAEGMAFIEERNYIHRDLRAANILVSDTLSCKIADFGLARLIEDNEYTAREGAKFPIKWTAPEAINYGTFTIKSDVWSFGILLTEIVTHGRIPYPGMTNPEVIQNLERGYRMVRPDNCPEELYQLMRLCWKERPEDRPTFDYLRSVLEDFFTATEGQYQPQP
In short: as §1

IGF1R = IGF1R (Homo sapiens, UniProt P08069)
IGF1R, sequence (P08069 31-1367, species assumed): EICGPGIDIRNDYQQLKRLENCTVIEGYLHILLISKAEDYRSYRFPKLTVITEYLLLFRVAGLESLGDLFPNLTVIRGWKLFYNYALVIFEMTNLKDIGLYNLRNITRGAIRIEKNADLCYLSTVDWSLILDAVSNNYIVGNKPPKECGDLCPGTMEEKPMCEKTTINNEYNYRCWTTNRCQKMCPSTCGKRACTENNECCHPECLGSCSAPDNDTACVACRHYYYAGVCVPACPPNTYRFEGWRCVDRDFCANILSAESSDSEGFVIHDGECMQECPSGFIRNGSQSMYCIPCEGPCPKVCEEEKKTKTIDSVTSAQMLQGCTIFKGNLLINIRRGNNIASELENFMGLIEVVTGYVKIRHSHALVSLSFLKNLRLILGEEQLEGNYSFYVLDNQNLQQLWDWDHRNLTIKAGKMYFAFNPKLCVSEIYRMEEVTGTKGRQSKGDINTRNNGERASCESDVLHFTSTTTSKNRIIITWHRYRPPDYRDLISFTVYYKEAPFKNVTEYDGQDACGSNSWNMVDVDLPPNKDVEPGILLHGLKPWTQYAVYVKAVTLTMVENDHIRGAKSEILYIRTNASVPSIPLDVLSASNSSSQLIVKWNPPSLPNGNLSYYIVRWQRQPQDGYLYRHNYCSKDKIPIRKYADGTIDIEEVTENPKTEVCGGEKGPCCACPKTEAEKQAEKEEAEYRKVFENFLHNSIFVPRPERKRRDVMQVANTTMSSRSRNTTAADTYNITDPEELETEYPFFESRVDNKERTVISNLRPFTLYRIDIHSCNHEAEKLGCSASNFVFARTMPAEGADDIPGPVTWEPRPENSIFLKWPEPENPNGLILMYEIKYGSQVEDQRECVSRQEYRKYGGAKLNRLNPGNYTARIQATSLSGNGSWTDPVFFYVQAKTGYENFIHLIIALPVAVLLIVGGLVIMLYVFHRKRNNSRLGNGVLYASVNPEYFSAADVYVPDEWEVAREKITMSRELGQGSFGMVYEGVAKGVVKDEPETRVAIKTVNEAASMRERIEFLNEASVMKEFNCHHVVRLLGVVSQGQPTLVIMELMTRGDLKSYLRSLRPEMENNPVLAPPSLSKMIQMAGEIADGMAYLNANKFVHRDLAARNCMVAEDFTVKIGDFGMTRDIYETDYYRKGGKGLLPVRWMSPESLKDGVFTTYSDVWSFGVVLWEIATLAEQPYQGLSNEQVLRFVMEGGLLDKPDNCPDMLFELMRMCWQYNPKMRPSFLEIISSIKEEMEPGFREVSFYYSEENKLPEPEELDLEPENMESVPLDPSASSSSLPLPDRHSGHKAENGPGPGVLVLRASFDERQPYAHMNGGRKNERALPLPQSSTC
In short: as §1

SRC = SRC (Homo sapiens, UniProt P12931)
SRC, sequence (P12931 whole entry, species assumed): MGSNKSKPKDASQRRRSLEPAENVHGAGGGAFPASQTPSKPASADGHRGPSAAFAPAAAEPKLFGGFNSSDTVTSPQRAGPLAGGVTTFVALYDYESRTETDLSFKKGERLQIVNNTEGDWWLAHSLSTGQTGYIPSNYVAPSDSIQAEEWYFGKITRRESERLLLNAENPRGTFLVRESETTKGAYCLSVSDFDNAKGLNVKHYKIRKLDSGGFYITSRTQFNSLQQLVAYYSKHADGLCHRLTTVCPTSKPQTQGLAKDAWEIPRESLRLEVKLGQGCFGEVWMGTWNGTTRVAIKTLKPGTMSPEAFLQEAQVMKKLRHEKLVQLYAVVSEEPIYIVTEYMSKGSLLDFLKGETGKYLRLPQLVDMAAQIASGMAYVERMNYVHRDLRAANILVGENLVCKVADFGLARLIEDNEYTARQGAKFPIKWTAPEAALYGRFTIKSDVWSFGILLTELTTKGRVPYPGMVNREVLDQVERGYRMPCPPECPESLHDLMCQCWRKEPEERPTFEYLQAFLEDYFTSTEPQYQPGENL
In short: as §1

| inhibition at 10 µM (ACVR1B (ALK4)) | inhibition at 10 µM (PLK1) | inhibition at 10 µM (JAK3) | inhibition at 10 µM (LCK) | inhibition at 10 µM (IGF1R) | inhibition at 10 µM (SRC) | Structure (SMILES) |
| --- | --- | --- | --- | --- | --- | --- |
| -5% | -1% | -8% | 19% | 9% | 16% | Nc1ncnc2c1ncn2[C@@H]1O[C@H](COC(=O)N2CCC[C@H]2CO)[C@@H](O)[C@H]1O [Compound C9] |
| 0% | -8% | -7% | 57% | 8% | 29% | Nc1ncnc2c1ncn2[C@@H]1O[C@H](COC(=O)N2CCN(CCc3ccccc3)CC2)[C@@H](O)[C@H]1O [Compound C26] |
| 3% | -11% | -2% | 9% | 11% | 8% | Nc1ncnc2c1ncn2[C@@H]1O[C@H](COC(=O)N2CCS(=O)(=O)CC2)[C@@H](O)[C@H]1O [Compound C100] |
| 1% | 0% | -8% | 11% | 1% | 8% | N#CCCN1CCN(C(=O)OC[C@H]2O[C@@H](n3cnc4c(N)ncnc43)[C@H](O)[C@@H]2O)CC1 [Compound C70] |
| 6% | -5% | 2% | 13% | 7% | 17% | CN1CCN(CCNC(=O)OC[C@H]2O[C@@H](n3cnc4c(N)ncnc43)[C@H](O)[C@@H]2O)CC1 [Compound C46] |
| 0% | -10% | 2% | 9% | 2% | 8% | Nc1ncnc2c1ncn2[C@@H]1O[C@H](COC(=O)N2CCN(C(=O)N3CCOCC3)CC2)[C@@H](O)[C@H]1O [Compound C89] |

Continued, compound first:

| Structure (SMILES) | inhibition at 10 µM (ACVR1B (ALK4)) | inhibition at 10 µM (PLK1) | inhibition at 10 µM (JAK3) | inhibition at 10 µM (LCK) | inhibition at 10 µM (IGF1R) | inhibition at 10 µM (SRC) |
| --- | --- | --- | --- | --- | --- | --- |
| Nc1ncnc2c1ncn2[C@@H]1O[C@H](COC(=O)NCCCc2nc3ccccc3[nH]2)[C@@H](O)[C@H]1O [Compound C1] | 2% | -8% | -2% | 72% | 0% | 46% |
| Nc1ncnc2c1ncn2[C@@H]1O[C@H](COC(=O)NCCN2CCCC2=O)[C@@H](O)[C@H]1O [Compound C22] | 3% | -5% | -8% | 15% | 4% | 12% |
| CS(=O)(=O)N1CC2(CCN(C(=O)OC[C@H]3O[C@@H](n4cnc5c(N)ncnc54)[C@H](O)[C@@H]3O)CC2)c2ccccc21 [Compound C98] | -1% | -7% | -1% | 84% | 8% | 58% |
| Nc1ncnc2c1ncn2[C@@H]1O[C@H](COC(=O)N2CCC(Cc3ccc(F)cc3)C2)[C@@H](O)[C@H]1O (stereo partly drawn) [Compound C66] | 1% | -5% | 0% | 57% | 1% | 38% |
| CN(C)CCNC(=O)OC[C@H]1O[C@@H](n2cnc3c(N)ncnc32)[C@H](O)[C@@H]1O [Compound C85] | 0% | -3% | -12% | 25% | 8% | 17% |
| CC(C)N1CCC(NC(=O)OC[C@H]2O[C@@H](n3cnc4c(N)ncnc43)[C@H](O)[C@@H]2O)CC1 [Compound C19] | 6% | -6% | -2% | 32% | -2% | -1% |
| Nc1ncnc2c1ncn2[C@@H]1O[C@H](COC(=O)N[C@@H]2CCN(Cc3ccccc3)C2)[C@@H](O)[C@H]1O [Compound C10] | 4% | -13% | -2% | 62% | 8% | 25% |
| Nc1ncnc2c1ncn2[C@@H]1O[C@H](COC(=O)N2CCN(Cc3ccccc3)CC2CO)[C@@H](O)[C@H]1O (stereo partly drawn) [Compound C13] | 7% | -12% | 1% | 44% | 2% | 29% |
| C[C@@H](NC(=O)OC[C@H]1O[C@@H](n2cnc3c(N)ncnc32)[C@H](O)[C@@H]1O)c1ccc(Cl)cc1 [Compound C4] | 1% | -3% | 6% | 60% | 11% | 33% |
| Nc1ncnc2c1ncn2[C@@H]1O[C@H](COC(=O)NC[C@H](O)CO)[C@@H](O)[C@H]1O [Compound C8] | 0% | -1% | -2% | 26% | 5% | -13% |

— patent publication EP3212201B1, “NUCLEOSIDE KINASE INHIBITORS” (BCI Pharma, priority 2014, dated 2016)
